In US8569292B2, “Cyclic inhibitors of 11β-hydroxysteroid dehydrogenase 1” (Vitae Pharmaceuticals, Inc., priority 2008, dated 2013):

What was measured:
[1] = Biological Test Example 5: fraction unbound in human plasma (equilibrium dialysis); assay type: in vitro ADME
Procedure: Plasma protein binding of compounds was determined with Equilibrium Dialysis of spiked plasma against compound free dextrane buffer using a dialysis membrane with mass cutoff of 5000 Da. Compound concentrations in plasma and buffer after incubation were measured using HPLC/Mass spectrometry.

11β-HSD1 [2] = molecular target: T1, 11β-HSD1 (Homo sapiens, UniProt P28845); assay: Biological Test Example 4: microsomal 11β-HSD1 in the presence of 50% human plasma; settings: for Shift: IC50 in Test Example 4 divided by IC50 in Test Example 1
T1 sequence (P28845 whole entry): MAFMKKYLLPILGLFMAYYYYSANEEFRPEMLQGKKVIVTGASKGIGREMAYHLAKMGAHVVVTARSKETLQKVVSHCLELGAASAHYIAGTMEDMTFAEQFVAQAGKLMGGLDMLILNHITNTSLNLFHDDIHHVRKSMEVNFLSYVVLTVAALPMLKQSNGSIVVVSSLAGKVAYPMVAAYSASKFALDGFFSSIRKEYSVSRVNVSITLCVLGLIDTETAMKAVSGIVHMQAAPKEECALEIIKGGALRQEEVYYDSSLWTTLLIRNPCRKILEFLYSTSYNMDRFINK

CYP3A4 = CYP3A4 (Homo sapiens, UniProt P08684); assay: Biological Test Example 6: CYP3A4 inhibition (erythromycin N-demethylation); assay type: in vitro ADME
Chain of CYP3A4 (P08684 whole entry): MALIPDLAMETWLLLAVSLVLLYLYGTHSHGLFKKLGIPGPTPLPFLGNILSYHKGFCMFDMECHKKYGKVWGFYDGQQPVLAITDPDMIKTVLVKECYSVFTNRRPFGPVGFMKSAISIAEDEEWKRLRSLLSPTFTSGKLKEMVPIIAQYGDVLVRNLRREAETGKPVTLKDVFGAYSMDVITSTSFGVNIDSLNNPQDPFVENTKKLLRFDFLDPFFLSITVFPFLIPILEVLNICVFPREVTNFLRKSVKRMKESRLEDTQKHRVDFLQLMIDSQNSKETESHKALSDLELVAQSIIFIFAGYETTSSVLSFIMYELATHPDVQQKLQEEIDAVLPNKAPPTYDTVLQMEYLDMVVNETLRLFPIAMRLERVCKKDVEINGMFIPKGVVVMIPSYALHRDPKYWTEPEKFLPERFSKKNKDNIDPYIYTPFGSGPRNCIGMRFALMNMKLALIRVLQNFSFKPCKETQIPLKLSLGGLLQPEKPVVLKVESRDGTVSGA

11β-HSD1 [3] = molecular target: T1, 11β-HSD1; assay: biochemical; settings: for inhibition at 0.1 µM: read-out: Average % inhibition at 100 nM
CYP2C19 = CYP2C19 (Homo sapiens, UniProt P33261); assay: Biological Test Example 8: CYP2C19 inhibition (diazepam N-demethylation); assay type: in vitro ADME
Chain of CYP2C19 (P33261 whole entry): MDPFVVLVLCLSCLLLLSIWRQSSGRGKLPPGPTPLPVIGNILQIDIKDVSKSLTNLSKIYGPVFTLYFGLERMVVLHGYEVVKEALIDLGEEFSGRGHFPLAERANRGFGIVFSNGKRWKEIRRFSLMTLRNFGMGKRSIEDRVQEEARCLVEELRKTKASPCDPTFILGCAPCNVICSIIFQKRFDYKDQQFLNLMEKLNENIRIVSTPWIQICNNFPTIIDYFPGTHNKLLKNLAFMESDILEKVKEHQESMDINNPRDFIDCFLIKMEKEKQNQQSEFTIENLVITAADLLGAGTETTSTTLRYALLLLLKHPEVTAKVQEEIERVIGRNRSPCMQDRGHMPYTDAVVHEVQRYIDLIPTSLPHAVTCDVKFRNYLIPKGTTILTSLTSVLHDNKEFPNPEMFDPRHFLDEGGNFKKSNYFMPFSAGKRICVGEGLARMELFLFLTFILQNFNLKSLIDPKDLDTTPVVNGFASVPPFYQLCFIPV

CYP2C9 [4] = molecular target: T2, CYP2C9 (Homo sapiens, UniProt P11712); assay: Biological Test Example 7: CYP2C9 inhibition (naproxen O-demethylation); assay type: in vitro ADME
T2 construct: purchased Invitrogen 2859; host or cells: insect cells infected with baculovirus (microsomes)
T2 sequence (P11712 whole entry): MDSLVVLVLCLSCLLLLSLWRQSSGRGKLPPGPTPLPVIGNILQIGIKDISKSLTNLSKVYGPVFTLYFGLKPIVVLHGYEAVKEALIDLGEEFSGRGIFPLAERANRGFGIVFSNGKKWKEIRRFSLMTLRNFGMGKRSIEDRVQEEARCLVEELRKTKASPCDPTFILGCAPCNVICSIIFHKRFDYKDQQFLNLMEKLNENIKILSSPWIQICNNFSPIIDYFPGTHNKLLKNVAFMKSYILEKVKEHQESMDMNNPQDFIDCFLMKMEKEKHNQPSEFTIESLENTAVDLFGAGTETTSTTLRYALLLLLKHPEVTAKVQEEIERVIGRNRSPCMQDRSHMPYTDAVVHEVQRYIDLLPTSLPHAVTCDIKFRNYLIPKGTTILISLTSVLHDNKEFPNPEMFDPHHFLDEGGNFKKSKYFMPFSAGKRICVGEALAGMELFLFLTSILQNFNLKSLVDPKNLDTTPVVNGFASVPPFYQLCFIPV

CYP2C9 [5] = molecular target: T2, CYP2C9; assay: Biological Test Example 9: CYP2C9 inhibition (Invitrogen kit, fluorogenic OOMR); assay type: in vitro ADME
[6] = Biological Test Example 1 IC50 (nM)
[7] = IC50 Range, Biological Test Example 1

SMILES: COc1ccc(-c2ccc([C@H](C)N3CC[C@](CCC(N)=O)(c4ccccc4)OC3=O)cc2)cn1 [EXAMPLE 52, 3-((R)-3-((S)-1-(4-(6-methoxypyridin-3-yl)phenyl)ethyl)-2-oxo-6-phenyl-1,3-oxazinan-6-yl)propanamide]
- Biological Test Example 5 (%) [1]: 1.8%
- IC50 (11β-HSD1 [2]): 0.0105 µM
- IC50 (CYP3A4): > 50 µM
- IC50 (11β-HSD1 [3]; [6]): 1.1 nM
- IC50 (11β-HSD1 [3]; [7]): < 100 nM
- inhibition at 0.1 µM (11β-HSD1 [3]): 94.5%

SMILES: C[C@@H](c1ccc(-c2ccccn2)cc1)N1CC[C@](CCCNS(C)(=O)=O)(c2ccc(F)cc2)OC1=O [EXAMPLE 61, N-(3-((R)-6-(4-fluorophenyl)-2-oxo-3-((S)-1-(4-(pyridin-2-yl)phenyl)ethyl)-1,3-oxazinan-6-yl)propyl)methanesulfonamide]
- IC50 (11β-HSD1 [2]): 0.0136 µM
- Shift (11β-HSD1 [2]): 18.2
- IC50 (CYP2C19): 40 µM
- IC50 (CYP2C9 [4]): 23 µM
- IC50 (CYP3A4): 29.2 µM
- IC50 (CYP2C9 [5]): 9.9 µM
- IC50 (11β-HSD1 [3]; [6]): 0.7 nM
- IC50 (11β-HSD1 [3]; [7]): < 100 nM
- inhibition at 0.1 µM (11β-HSD1 [3]): 96.2%

SMILES: Cc1cc(-c2ccc([C@H](C)N3CC[C@](CC(C)(C)O)(c4ccc(F)cc4)OC3=O)cc2)ccn1 [EXAMPLE 76, (S)-6-(4-fluorophenyl)-6-(2-hydroxy-2-methylpropyl)-3-((S)-1-(4-(2-methylpyridin-4-yl)phenyl)ethyl)-1,3-oxazinan-2-one]
- IC50 (11β-HSD1 [2]): 0.0069 µM
- Shift (11β-HSD1 [2]): 8.8
- IC50 (CYP2C19): 8.5 µM
- IC50 (CYP2C9 [4]): 2.9 µM
- IC50 (CYP3A4): 5 µM
- IC50 (CYP2C9 [5]): 7.9 µM
- IC50 (11β-HSD1 [3]; [6]): 0.8 nM
- IC50 (11β-HSD1 [3]; [7]): < 100 nM
- inhibition at 0.1 µM (11β-HSD1 [3]): 98.7%

SMILES: Cc1cc(-c2ccc([C@H](C)N3CC[C@](CCCNS(C)(=O)=O)(c4ccc(F)cc4)OC3=O)cc2)ccn1 [EXAMPLE 80, N-(3-((R)-6-(4-fluorophenyl)-3-((S)-1-(4-(2-methylpyridin-4-yl)phenyl)ethyl)-2-oxo-1,3-oxazinan-6-yl)propyl)methanesulfonamide]
- IC50 (11β-HSD1 [2]): 0.0055 µM
- Shift (11β-HSD1 [2]): 5.4
- IC50 (CYP2C19): 13.2 µM
- IC50 (CYP2C9 [4]): 11.2 µM
- IC50 (CYP3A4): 13 µM
- IC50 (CYP2C9 [5]): 8.9 µM
- IC50 (11β-HSD1 [3]; [6]): 1 nM
- IC50 (11β-HSD1 [3]; [7]): < 100 nM
- inhibition at 0.1 µM (11β-HSD1 [3]): 96%

SMILES: COc1ccc(-c2ccc([C@H](C)N3CC[C@](CC(C)(C)O)(c4ccccc4)OC3=O)cc2)cn1 [EXAMPLE 93, (S)-6-(2-hydroxy-2-methylpropyl)-3-((S)-1-(4-(6-methoxypyridin-3-yl)phenyl)ethyl)-6-phenyl-1,3-oxazinan-2-one]
- IC50 (CYP2C19): 11.4 µM
- IC50 (CYP2C9 [4]): 8 µM
- IC50 (CYP3A4): 11.6 µM
- IC50 (CYP2C9 [5]): 8 µM

SMILES: Cc1cc(-c2ccc([C@H](C)N3CC[C@](CC(C)(C)O)(c4ccccc4)OC3=O)cc2)ccn1 [EXAMPLE 97, (S)-6-(2-hydroxy-2-methylpropyl)-3-((S)-1-(4-(2-methylpyridin-4-yl)phenyl)ethyl)-6-phenyl-1,3-oxazinan-2-one]
- IC50 (11β-HSD1 [2]): 0.0108 µM
- Shift (11β-HSD1 [2]): 11.1
- IC50 (CYP2C19): 19.5 µM
- IC50 (CYP2C9 [4]): 11.2 µM
- IC50 (CYP3A4): 8.9 µM
- IC50 (CYP2C9 [5]): 9.7 µM
- IC50 (11β-HSD1 [3]; [6]): 1 nM
- IC50 (11β-HSD1 [3]; [7]): < 100 nM
- inhibition at 0.1 µM (11β-HSD1 [3]): 98.8%

SMILES: C[C@@H](c1ccc(-c2ccncn2)cc1)N1CC[C@](CC(C)(C)O)(c2ccccc2)OC1=O [EXAMPLE 131, (S)-6-(2-hydroxy-2-methylpropyl)-6-phenyl-3-((S)-1-(4-(pyrimidin-4-yl)phenyl)ethyl)-1,3-oxazinan-2-one]
- IC50 (11β-HSD1 [2]): 0.0051 µM
- IC50 (CYP2C19): 2.6 µM
- IC50 (CYP2C9 [4]): 14 µM
- IC50 (CYP3A4): 5.6 µM
- IC50 (CYP2C9 [5]): 11.2 µM
- IC50 (11β-HSD1 [3]; [6]): 2.2 nM
- IC50 (11β-HSD1 [3]; [7]): < 100 nM
- inhibition at 0.1 µM (11β-HSD1 [3]): 98.5%

SMILES: Cc1ccc(-c2ccc([C@H](C)N3CC[C@](CC(C)(C)O)(c4ccccc4)OC3=O)cc2)nn1 [EXAMPLE 134, (S)-6-(2-hydroxy-2-methylpropyl)-3-((S)-1-(4-(6-methylpyridazin-3-yl)phenyl)ethyl)-6-phenyl-1,3-oxazinan-2-one]
- Biological Test Example 5 (%) [1]: 10.5%
- IC50 (CYP2C19): > 50 µM
- IC50 (CYP2C9 [4]): > 50 µM
- IC50 (CYP3A4): > 50 µM
- IC50 (CYP2C9 [5]): > 30 µM

SMILES: C[C@@H](c1ccc(-c2ccc(F)cn2)cc1)N1CC[C@](CC(C)(C)O)(c2ccccc2)OC1=O [EXAMPLE 136, (S)-3-((S)-1-(4-(5-fluoropyridin-2-yl)phenyl)ethyl)-6-(2-hydroxy-2-methylpropyl)-6-phenyl-1,3-oxazinan-2-one]
- Biological Test Example 5 (%) [1]: 0.3%
- IC50 (CYP2C19): 24.7 µM
- IC50 (CYP2C9 [4]): 20.1 µM
- IC50 (CYP3A4): 24.1 µM
- IC50 (CYP2C9 [5]): 9.6 µM
